Data from a melting point compilation (Tetko et al.; mined from patent text by program, amines drawn as free bases though some values may be those of a salt).

SMILES | melting point
N#CCc1ccc(NC(=O)c2ccc(C=O)cc2)cc1 | 194 °C
CCC(=O)NCC[C@@H]1CCc2ccc(O)c(CCO)c21 | 144 to 146 °C
C[C@H](c1ccccc1)N1C(=O)N(Cc2ccccc2)[C@@H]2C(=O)OC[C@@H]21 | 163 to 164 °C
CC(C)NC1=NS(=O)(=O)c2cc(Cl)cc([N+](=O)[O-])c2N1 | 266 to 267 °C
CC(=O)c1cccc(NC(=O)c2cc(C(=O)Nc3cccc(C(C)=O)c3)cc(C(=O)Nc3cccc(C(C)=O)c3)c2)c1 | 270 °C
CN(CC1CO1)S(=O)(=O)C(F)(F)C(F)(F)C(F)(F)C(F)(F)S(=O)(=O)N(C)CC1CO1 (stereo not drawn) | 77 to 79 °C
CCCCN(CCCC)c1ccc(C=CC2=C(C#N)C(=C(C#N)C#N)OC2(C)C)c(O[Si](c2ccccc2)(c2ccccc2)C(C)(C)C)c1 | 220 to 221 °C
NC(Cn1cncn1)(Cn1cncn1)c1ccc(Cl)cc1Cl | 135 to 136 °C
CC(=O)NCCc1ccc(CC(=O)O)cc1 | 117 to 118 °C
NNC(=O)C=Cc1cc2ccccc2o1 | 173 to 174 °C
CN(C)CCCCC(=O)c1ccc2c(c1)Cc1cc(C(=O)CCCCN(C)C)ccc1-2 | 124 to 126 °C
CC12CCC3c4cccc(N)c4CCC3C1CCC2O (stereo not drawn) | 189 to 192 °C
COCc1c(C(O)c2ccccc2)ncc2[nH]c3ccc(OCc4ccccc4)cc3c12 (stereo not drawn) | 190 to 191 °C
CC(=O)O[C@H]1[C@H](NC(=N)Nc2ccccc2)c2cc(C#N)ccc2OC1(C)C (relative stereo) | 239 to 240 °C
COc1ccc(N2CCN(Cc3ccc([N+](=O)[O-])cc3)CC2)cc1 | 130 to 132 °C
O=C(C=Cc1ccccc1)SC(Cn1ccnc1)c1ccc(Cl)cc1Cl (stereo not drawn) | 139 to 141 °C
CCOC(=O)[C@H]1CC[C@@H](c2ccccc2)N1C(=O)CNC(=O)Nc1cccc(C)c1 (racemic) | 115 °C
COC(=O)[C@H](Cc1ccc([N+](=O)[O-])cc1)NC(=O)OC(C)(C)C | 95 to 96 °C
O=C1CCC(N2Cc3c(OCc4ccc(Cn5ccnc5)cc4)cccc3C2=O)C(=O)N1 (stereo not drawn) | 248 to 250 °C
CCCCCCCCCCc1nc(N(C)C)nc(OC)c1Br | 45 to 46 °C
CCCCn1c(=O)c(C(=O)O)c(-c2ccc(Br)cc2)c2cccnc21 | 158 to 160 °C
Cc1cc2ccccc2n1-c1ccc(OCc2ccccc2)c(F)c1 | 70 to 71 °C
Nc1onc(C(F)(F)F)c1-c1ccccc1 | 89 to 91 °C
CC(=O)Oc1c(C(C)C)cc(-c2c3ccccc3cc3sc(C)c(C)c23)cc1C(C)C | 243 to 245 °C
CC(C#N)CC(=O)c1cccc(Cl)c1 (stereo not drawn) | 72 to 75 °C

SMILES | melting point
CCOC(=O)C1C(=O)c2cc(OC)ccc2N=C1c1ccccc1 (stereo not drawn) | 225 to 227 °C
Oc1cc(F)cc(C2(O)CCOCC2)c1 | 158 to 160 °C
CC(=O)c1c(C)nc(C)n1-c1cc(C)c2[nH]c(=O)ccc2c1 | 240 to 242 °C
COC(=O)c1cc2c3ccccc3n(-c3ccccc3)c2s1 | 147 to 149 °C
Cn1c(C(F)(F)F)cc(=O)n(-c2cc(Oc3ccccc3OCc3ccccc3)c(Cl)cc2F)c1=O | 50.8 °C
Cn1nc(-c2ccccc2)c(CC(=O)O)c1-c1ccccc1 | 170 to 172 °C
Cc1noc(NS(=O)(=O)c2ccccc2-c2ccc(-c3cccnc3)cc2)c1C | 96 to 106 °C
CCOC(=O)C(=O)CC(=O)c1cn(Cc2ccccc2F)c2cc(Cl)ccc2c1=O | 173 to 175 °C
CN(C)Cc1ccc2oc(-c3ccc(O)cc3)cc(=O)c2c1 | 99 to 102 °C
CC1(C)OC(=O)Nc2c(Br)cc(-c3ccc(F)c(C#N)c3)cc21 | 235 to 236 °C
CN1C(=O)C2=C(c3ccc(Br)cc3)OC(=O)C2=C1c1ccccc1 | 215 to 216 °C
O=C1c2ccccc2-n2c(nc3ccccc3c2=O)CN1CCc1ccccc1 | 208 to 210 °C
COc1ccc(S(=O)(=O)C2(CCCCCCCCCC#Cc3ccc(Cl)cc3)SC(=O)NC2=O)cc1 (stereo not drawn) | 114 to 121 °C
CCOC(=O)c1cn(Cc2ccccc2)nc1OCc1ccccc1 | 71 to 72 °C
O=C(O)/C=C(\c1ccccc1)c1ccncc1 | 239 to 241 °C
CNCC(O)C1=CSC2C=CC=CC12 (stereo not drawn) | 98 to 102 °C
O=C(O)c1cc(-n2c(-c3ccccc3)cc3c2Cc2ccccc2-3)ccc1O | 201 to 205 °C
CC(C)(C)c1cc(-c2nnc(NC(N)=O)s2)cc(C(C)(C)C)c1O | > 270 °C
Cc1oc(-c2ccccc2)nc1COc1ccc(CC2SC(=O)NC2=O)cc1 (stereo not drawn) | 162 to 163 °C
CCC(=O)N[C@H]1CC[C@H](CCN2CCN(c3nccc4c3CCO4)CC2)CC1 | 192 °C
Cn1ncc(/C=C/C(=O)Nc2ccc(CN3C(=O)COC3=O)cc2)c1-c1ccc(F)cc1 | 239 to 240 °C
O=C(Nc1ccc2[nH]c(=O)n(CCCCN3CC=C(c4ccccc4)CC3)c(=O)c2c1)C(F)(F)F | 245 °C
O=C(OCc1ccccc1)C1CCc2[nH]c3ccccc3c2C1 (stereo not drawn) | 104 to 105 °C
OC1CSC(Oc2ccc(-c3ccncc3)nc2F)C(O)C1O (stereo not drawn) | 196 °C
COc1c(C)c(NC(=O)CC(C)(C)C)c2c(c1C)C(c1ccc(C(C)C)cc1)C(C)(C)O2 (stereo not drawn) | 140 to 141 °C

SMILES | melting point
CC1CC(Nc2ccc(F)cc2)c2cc(F)ccc2N1 (stereo not drawn) | 120 to 122 °C
CCCCCCCOc1ccc(CNc2ccc(C(=O)OCC)cc2)cc1 | 111 to 113 °C
CNC(=O)c1ccc2c(c1)C(=O)N1CCC[C@@H]1CO2 | 186 to 189 °C
COc1ccc(NC(=O)NCc2cccc3c2C(=O)N(C2CCC(=O)NC2=O)C3=O)cc1 (stereo not drawn) | 205 to 207 °C
CC12CCC3c4cc(OCC(F)(F)F)c(O)cc4C(=NO)CC3C1CCC2O (stereo not drawn) | 187 to 191 °C
COC1=Cc2ccccc2C(=CC(=O)O)c2ccsc21 | 163 to 167 °C
CC1(C)CCSc2ccc(C(O)COc3ccc(C(=O)O)c(O)c3)cc21 (stereo not drawn) | 166 to 167 °C
CS(=O)(=O)N(Cc1ccncc1)c1ccc(F)cc1F | 101 to 105 °C
CCc1nc(OC)c(NC(=O)N2CCN(c3cc(F)cc(F)c3)CC2)cc1C(=O)Nc1cc(CO)cc(Nc2c3ccccc3nc3ccccc23)c1 | 184 to 186 °C
COC(=O)C1CCCn2c(=O)[nH]c(=O)n21 (stereo not drawn) | 215 to 216 °C
C#Cc1cnc2c(c1)C(=O)N(C)c1cccnc1N2CC | 117 to 118 °C
OC1CSC(Oc2cncc(-c3cccs3)c2)C(O)C1O (stereo not drawn) | 205 °C
Cc1nsc(NC(=O)Cc2ccc(O)c(N)c2)c1Cl | 239 to 243 °C
CC(C)(CCC(=O)N[C@H](Cc1ccccc1)C(=O)NCCCCNC(=N)N)C(=O)O | 169 °C
Oc1cccc(-c2ocnc2-c2onc(-c3ccccc3)c2-c2ccccc2)c1 | 199 to 200 °C
O=[N+]([O-])c1ccc(Oc2ccc(Oc3ccc([N+](=O)[O-])cc3)c(P(=O)(c3ccccc3)c3ccccc3)c2)cc1 | 239 to 242 °C
CS(=O)(=O)c1ccc(-c2cnn(-c3cccc(Cl)c3)c(=O)c2-c2ccc(F)cc2)cc1 | 232 to 235 °C
O=C(O)COc1cccc2c1Cc1sc(S(=O)(=O)CC=Cc3ccccc3)nc1-2 | 212 to 214 °C
COc1ccc(OCCc2c[nH]cn2)cc1 | 178 to 181 °C
CCOC(=O)c1c(C(=O)Cc2c(CCNCCc3ccccc3)cc3c(c2OC)OCO3)ccc(OC)c1OC | 102 to 104 °C
COc1ccccc1OCC(O)CNc1nc(-c2ccccc2)nc2ccccc12 (stereo not drawn) | 138 to 140 °C
Cn1nnnc1CC(c1ccccc1)c1ccccc1 | 147 to 148 °C
CCc1cnc(N2CCN(C(=O)c3ccc(Nc4ncnc5ccccc45)cc3)CC2)nc1 | 248 to 249 °C
CC(C)(C)OC(=O)NC1CCCOCC=CC2CC2(C(=O)NS(=O)(=O)C2CC2)NC(=O)C2CC(OC(=O)C3CCCCC3)CN2C1=O (stereo not drawn) | 128 to 130 °C
O=C1N(Cc2ccc(OCc3ccccc3)cc2)c2ccccc2C12COc1cc3c(cc12)CCO3 (stereo not drawn) | 169 to 170 °C

SMILES | melting point
Cn1cc2c(O)cc(-c3ccccc3)nc2n1 | 241 to 243 °C
NC1=C2C=NN=C2N(c2ccc([N+](=O)[O-])cc2)CN1c1ccccc1 | 348 to 349 °C
O=C(Nc1cccc2c(CO)c(Br)cnc12)c1c(Cl)cccc1Cl | 246 to 247 °C
C#CCOCc1c(C)nc2c(OCc3ccccc3C)cccn12 | 87 to 89 °C
Cn1ncc(SCc2ccccc2)c(Cl)c1=O | 102 to 104 °C
Cc1cc(Oc2ncc(C(F)(F)F)cc2Cl)ccc1N=C=O | 154 to 161 °C
CC1SCCCNc2ccccc21 (stereo not drawn) | 72 to 74 °C
CCCCCCC(=O)C(NC(=O)C=Cc1ccccc1)C(=O)OC (stereo not drawn) | 85 to 86 °C
CCCc1c2c(c(O)c3c(=O)cc(C(=O)O)oc13)C(O)CCC2 (stereo not drawn) | 245 to 249 °C
Cc1cc(C)c(CNc2c(C)nn(C)c2NCC(C)(C)C)c(C)c1 | 114 to 120 °C
CCCCOc1cc(/C=C/C(=O)NS(=O)(=O)CCC(C)C)n(Cc2ccc(C(F)(F)F)cc2Cl)n1 | 89.5 to 90.5 °C
CS(=O)(=O)Oc1ccc(C=O)cc1 | 61 to 63 °C
C=CCN1C2CCC1C1CCC2N1C(c1ccc(C(=O)N2CCCCC2)cc1)c1cccc(O)c1 (stereo not drawn) | 133 to 135 °C
CN1CCN(c2nc3sc4c(NCc5cccnc5)ncnc4c3c3c2CCC(C)(C)C3)CC1 | 210 to 212 °C
CCOC(=O)CSc1c(C(=O)OCC)[nH]c2cc(Cl)cc(Cl)c12 | 152 to 153 °C
COc1ccc(CCCCCCCSc2ccccc2)cc1 | 58 to 59 °C
O=C(O)C1CCc2c(-c3ccc(Cl)cc3)noc2C1 (stereo not drawn) | 227 to 228 °C
CS(=O)c1cc(=O)c2ccc(N3CCOCC3)cc2s1 (stereo not drawn) | 198 to 200 °C
COc1ccc(-c2nc(C)c(C)s2)cc1 | 166 to 170 °C
Cc1ccc(S(=O)(=O)N2CC[C@@H](C(C#N)(c3ccccc3)c3ccccc3)C2)cc1 | 165 to 178 °C
CC(C)(C)c1ccc(CCC2CO2)cc1NC(=O)CC1c2ccccc2Oc2ccccc21 (stereo not drawn) | 156 to 157 °C
CC(C)(C)c1cc(Cl)cc2c1OC(=O)C2O (stereo not drawn) | 150 to 154 °C
CCOc1cc(OC)c(/C=C/C(=O)c2ccc(C(=O)O)cc2)cc1-c1cccs1 | 210 to 212 °C
